Experimental data taken from patent US20230393140A1, “BINDING ASSAYS INVOLVING A PLURALITY OF SYNTHETIC COMPOUNDS, TARGETS, AND COUNTER TARGETS” (SRI International, priority 2020, published 2023).
Like-named read-outs stand apart in the source and are kept apart here. Marks after values point to notes of the source that are not given here. Numbered stars: 1 amine (or outer) side, 2 acyl side, 3 side chain; on linkers, the order of the positions; unused ones are H or OH. Square brackets hold non-standard residues; d marks the D form. Peptide text beside a SMILES is read from it. * marks the point of attachment. 5FAM = O=C1OC2(c3ccc(O)cc3Oc3cc(O)ccc32)c2ccc(C(=O)*)cc21; NHCH2C6H4(4-CH2CONH2) = NC(=O)Cc1ccc(CN*)cc1; X1 = O=C(Cc1ccc(CN[*:1])cc1)[*:2]

Experiments:
K-Ras = biological target: T1, K-Ras (Homo sapiens, UniProt P01116, G12V); experiment: MST binding affinity of resynthesized NNP hits to K-Ras
T1 construct: purchased Cytoskeleton Inc. CS-RS04
Protocol: Loading was performed according to the following protocol: The 200 μM stock solution of the target protein was diluted to 10 μM in 20 mM HEPES pH 8.0, 150 mM NaCl, 10 mM MgCl2, 1 mM TCEP, 0.05% Tween-20 (total volume 110 μL). 10 μL were set aside for later labeling quality control. EDTA pH 8.0 (stock concentration 10 mM) was added to the protein solution to a final concentration of 80 μM. GTP (stock concentration 50 mM) was added to the protein solution to a final concentration of 750 μM. The solution was incubated at 30° C. for 2 hours (PCR tube) and then placed on ice for 2 minutes. MgCl2 was added to the protein solution to a final concentration of 100 mM. The resulting protein solution was buffer exchanged into the buffer required in the labeling kit for labeling. […] All the other target molecules (TNFα, IL-6, IL-6R and ASGPR) were used as received without any additional treatment.
(§1) Hit binding affinity to various targets were determined using Microscale Thermophoresis (MST). MST experiments were performed on a Monolith NT.115pico (NanoTemper Technologies GmbH, Munich, Germany). Measurements were performed at room temperature, in triplicate with incubation periods of 15, 30 and 45 minutes. […] Targets were labeled using Nanotemper Monolith 2nd Generation Protein Labeling Kits. RED-MALEIMIDE (Maleimide-647-dye) labeling kit was used for K-Ras and RED-NHS (NHS-647-dye) labeling kit was used for IL-6, IL-6R, TNFα and ASGPR. The buffer for the ASGPR contained 20 mM HEPES pH 7.4, 150 mM NaCl, 10 mM MgCl2, 2 mM CaCl2, 0.05% Pluronic F-127, and 1 mM DTT; for IL-6 contained 20 mM HEPES pH 7.4, 150 mM KCl, 10 mM MgCl2, and 0.1% Pluronic F-127; for the soluble IL-6 receptor 20 mM HEPES pH 7.4, 150 mM NaCl, 10 mM MgCl2, and 0.05% Tween-20; for K-Ras 20 mM HEPES pH 7.4, 150 mM NaCl, 10 mM MgCl2, 0.05% Tween-20 and 1 mM DTT; for TNFα 10 mM HEPES pH 7.4, 150 mM NaCl, 10 mM MgCl2, 0.05% Polysorbate-20. Triplicate data was analyzed using MO.AffinityAnalysis software (NanoTemper Technologies GmbH).

biotinylated GST = experiment: Interference check with biotinylated GST and detection mix
Text: Table 20 below provides an interference check on the synthetic compounds using biotinylated GST, which was used with the detection mix to check for compound effect on fluorescence.

cRaf/K-Ras (G12V) PPI = biological target: T2, cRaf/K-Ras (G12V) PPI (Homo sapiens, UniProt P01116, G12V); experiment: K-Ras-cRaf HTRF-based PPI profiling; assay type: biochemical; conditions: for HillSlope: curve fit of % binding, K-Ras G12V 30 nM, GST-cRaf 10 nM; for blank corrected HTRF: raw data, compounds without fluorescein;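 as to blank corrected HTRF: background is the signal of wells with all components except cRaf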
T2 construct: b-Kras G12V (GppNHp) (aa 2-169); biotin (b-
Protocol: In some experimental embodiments, a buffer was added to the assay wells which included […] HEPES pH 7.4, 150 mM NaCl, 5 mM MgCl2, 1 mM DTT, 0.005% NP40, and 1% DMSO. 5 uL of 3×K-Ras protein was then added to the assay wells, followed by the synthetic compounds which were added using acoustic technology (ECHO, Labcyte) followed by thirty minutes incubation at room temperature. Afterwards, 5 uL of 3×cRaf protein was added to the assay wells and 5 uL of detection mix was then added to the assay wells after 30 minutes. The detection mix included Mab anti-GST-Tb cryptate (Cisbio 61GSTTLB) and streptavidin-XL665 (Ex/Em=(337/665; 620) in PHERAstar (BMG Labtech)). HTRF signal was measured […] later.
The data includes raw data (signal-background without cRaf protein but with all other component), % binding (relative to DMSO controls), and curve fits. Curve fits were performed when the activities at the highest concentration of the synthetic compounds were less than 65%. Tables 18A-18B below includes the raw data (e.g., blank corrected HTRF) and Tables 19A-19B includes the % binding.

TNFα = TNFα (Homo sapiens, UniProt P01375); experiment: MST binding affinity of resynthesized NNP hits to TNFα; parameters: purchased R&D Systems, Inc. 210-TA/CF; conditions: read-out: KD (nM) [95% conf. int], NNP2 library hit, target TNFα, one-site binding model
Protocol: as §1

[1] = K-Ras, compound with fluorescein on N-term, read-out: KD[nM] in MST (with fluorescein on N-term)
[2] = read-out: KD (nM) [95% conf. int], MST, NNP1 library hit, target K-Ras, one-site binding model

TNFα, sequence (P01375 77-233 limits assumed): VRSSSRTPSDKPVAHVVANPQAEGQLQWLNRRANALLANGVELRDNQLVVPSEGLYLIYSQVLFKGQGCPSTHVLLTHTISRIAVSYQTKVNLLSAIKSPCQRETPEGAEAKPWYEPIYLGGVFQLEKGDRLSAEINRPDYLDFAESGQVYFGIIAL

Compound	Kd (K-Ras; [1])	Kd (K-Ras; [2])	% signal compared to DMSO (biotinylated GST; assay conc. 0.000508053 μM)	% signal compared to DMSO (biotinylated GST; assay conc. 0.001524158 μM)	% signal compared to DMSO (biotinylated GST; assay conc. 0.004572474 μM)	% signal compared to DMSO (biotinylated GST; assay conc. 0.013717421 μM)	% signal compared to DMSO (biotinylated GST; assay conc. 0.041152263 μM)	% signal compared to DMSO (biotinylated GST; assay conc. 0.12345679 μM)	% signal compared to DMSO (biotinylated GST; assay conc. 0.37037037 μM)	% signal compared to DMSO (biotinylated GST; assay conc. 1.111111111 μM)	% signal compared to DMSO (biotinylated GST; assay conc. 3.333333333 μM)	HillSlope (cRaf/K-Ras (G12V) PPI)	blank corrected HTRF (cRaf/K-Ras (G12V) PPI; conc. 1.00E−05)	blank corrected HTRF (cRaf/K-Ras (G12V) PPI; conc. 1.11E−06)	blank corrected HTRF (cRaf/K-Ras (G12V) PPI; conc. 3.33E−06)	blank corrected HTRF (cRaf/K-Ras (G12V) PPI; conc. 3.70E−07)	blank corrected HTRF (cRaf/K-Ras (G12V) PPI; conc. 4.12E−08)	further results
CC(C)C[C@H](NC(=O)[C@@H](CCC(=O)O)NC(=O)[C@@H](CCCNC(=N)N)NC(=O)[C@@H](CO)NC(=O)[C@H](NC(=O)Cc1ccc(CNC(=O)[C@H](C)NC(=O)[C@@H](CO)NC(=O)CNC(=O)[C@@H](CO)NC(=O)[C@H]2CCCN2C(=O)Cc2ccc(CNC(=O)[C@H](Cc3ccccc3)NC(=O)[C@@H](CCC(=O)O)NC(=O)[C@@H](Cc3c[nH]cn3)NC(=O)[C@H]3CCCN3C(=O)[C@@H](CO)NC(=O)c3ccc4c(c3)C(=O)OC43c4ccc(O)cc4Oc4cc(O)ccc43)cc2)cc1)[C@H](C)O)C(=O)NCc1ccc(CC(=O)N2CCC[C@@H]2C(=O)N[C@H](CCCCN)C(=O)N[C@H](Cc2ccc(O)cc2)C(=O)N[C@H](CCCNC(=N)N)C(=O)N[C@@H](Cc2ccccc2)C(=O)NCc2ccc(CC(=O)N[C@H](CCCNC(=N)N)C(=O)N[C@H](Cc3ccc(O)cc3)C(=O)N[C@@H](C(=O)N[C@H](CCC(=O)O)C(=O)N[C@@H](C)C(=O)NCc3ccc(CC(=O)NCC(=O)N[C@H](Cc4c[nH]c5ccccc45)C(=O)N[C@H](Cc4c[nH]cn4)C(=O)N[C@H](CCCNC(=N)N)C(=O)N[C@@H](C)C(=O)NCc4ccc(CC(N)=O)cc4)cc3)[C@H](C)O)cc2)cc1 [KRAS-1-6] (5FAM-[dS][dP][dH][dE]F[X1][dP][dS]G[dS]A[X1][dT][dS][dR][dE]L[X1][dP][dK][dY][dR]F[X1][dR][dY][dT][dE]A[X1]G[dW][dH][dR]A-{NHCH2C6H4(4-CH2CONH2)})	21 nM	21 nM	103.1%	102.7%	102.4%	102.5%	102.9%	100.3%	100.7%	89.85%	74.45%	−0.8822	3880	9200	5253	11760	13672	% signal compared to DMSO (biotinylated GST; assay conc. 19 μM): 62.03* %; blank corrected HTRF (cRaf/K-Ras (G12V) PPI; conc. 1.23E−07): 13441; blank corrected HTRF (cRaf/K-Ras (G12V) PPI; conc. 1.52E−09): 13652
CC(C)C[C@H](NC(=O)[C@@H](CCC(=O)O)NC(=O)[C@H]1CCCN1C(=O)[C@@H](Cc1ccccc1)NC(=O)[C@@H](CO)NC(=O)c1ccc2c(c1)C(=O)OC21c2ccc(O)cc2Oc2cc(O)ccc21)C(=O)NCc1ccc(CC(=O)NCC(=O)N[C@@H](C(=O)N2CCC[C@@H]2C(=O)N[C@H](CCCNC(=N)N)C(=O)N[C@@H](C)C(=O)NCc2ccc(CC(=O)N3CCC[C@@H]3C(=O)N[C@H](CO)C(=O)N[C@H](CCC(=O)O)C(=O)N[C@H](CCCNC(=N)N)C(=O)NCC(=O)NCc3ccc(CC(=O)N4CCC[C@@H]4C(=O)N[C@H](CCCCN)C(=O)N[C@H](Cc4ccc(O)cc4)C(=O)N[C@H](CCCNC(=N)N)C(=O)N[C@@H](Cc4ccccc4)C(=O)NCc4ccc(CC(=O)N[C@H](CCCNC(=N)N)C(=O)N[C@H](Cc5ccccc5)C(=O)N5CCC[C@@H]5C(=O)N[C@@H](C(=O)NCC(=O)NCc5ccc(CC(=O)NCC(=O)N[C@H](Cc6c[nH]c7ccccc67)C(=O)N[C@H](Cc6c[nH]cn6)C(=O)N[C@H](CCCNC(=N)N)C(=O)N[C@@H](C)C(=O)NCc6ccc(CC(N)=O)cc6)cc5)C(C)C)cc4)cc3)cc2)C(C)C)cc1 [KRAS-1-9] (5FAM-[dS][dF][dP][dE]L[X1]G[dV][dP][dR]A[X1][dP][dS][dE][dR]G[X1][dP][dK][dY][dR]F[X1][dR][dF][dP][dV]G[X1]G[dW][dH][dR]A-{NHCH2C6H4(4-CH2CONH2)})	32 nM	32 nM	99.72%	102.8%	100.2%	101.4%	102.8%	101.5%	99.8%	92.41%	69.59%	−0.9902	4707	7790	3269	12513	14333	% signal compared to DMSO (biotinylated GST; assay conc. 10 μM): 53.69* %; blank corrected HTRF (cRaf/K-Ras (G12V) PPI; conc. 1.37E−08): 12329; blank corrected HTRF (cRaf/K-Ras (G12V) PPI; conc. 4.57E−09): 13688
CC(C)C[C@H](NC(=O)[C@@H](CCCCN)NC(=O)[C@@H](Cc1ccccc1)NC(=O)Cc1ccc(CNC(=O)[C@H](CC(C)C)NC(=O)[C@@H](CCCCN)NC(=O)[C@@H](CC(C)C)NC(=O)Cc2ccc(CNC(=O)[C@H](Cc3ccccc3)NC(=O)[C@@H](C)NC(=O)[C@@H](C)NC(=O)Cc3ccc(CNC(=O)[C@H](CC(C)C)NC(=O)[C@H](NC(=O)[C@@H](CCCCN)NC(=O)c4ccc5c(c4)C(=O)OC54c5ccc(O)cc5Oc5cc(O)ccc54)C(C)C)cc3)cc2)cc1)C(=O)NCc1ccc(CC(=O)N[C@H](Cc2c[nH]c3ccccc23)C(=O)N[C@H](CCCNC(=N)N)C(=O)N[C@H](C(=O)NCc2ccc(CC(=O)N[C@H](CO)C(=O)N[C@H](CO)C(=O)N[C@@H](Cc3ccccc3)C(=O)NCc3ccc(CC(=O)N[C@H](Cc4c[nH]cn4)C(=O)N[C@H](CCC(=O)O)C(=O)N[C@@H](CC(C)C)C(=O)NCc4ccc(CC(=O)N[C@H](Cc5ccccc5)C(=O)N[C@H](CCCCN)C(=O)N[C@@H](Cc5ccccc5)C(=O)NCc5ccc(CC(=O)N[C@@H](C(=O)N[C@H](CCC(=O)O)C(=O)N[C@@H](CC(C)C)C(=O)NCc6ccc(CC(N)=O)cc6)[C@H](C)O)cc5)cc4)cc3)cc2)C(C)C)cc1 [TNF-31-2] (5FAM-[dK][dV]L[X1][dA][dA]F[X1][dL][dK]L[X1][dF][dK]L[X1][dW][dR]V[X1][dS][dS]F[X1][dH][dE]L[X1][dF][dK]F[X1][dT][dE]L-{NHCH2C6H4(4-CH2CONH2)})																		Kd (TNFα): 23 nM
